Test results reported in PubChem BioAssay (NCI).
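Test compounds were applied to cells in 96-well plates for 48 hours at 5 doses. GI50 = concentration required for 50% inhibition of growth. TGI is the concentration that stops growth completely.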

How the values were obtained:
Test in all cases: inhibition of tumour cell growth, NCI panel, 48 h
[1] = tested on: T-47D breast
[2] = tested on: MCF7 breast
[3] = tested on: BT-549 breast
[4] = tested on: OVCAR-5 ovarian
[5] = tested on: SK-OV-3 ovarian
[6] = tested on: OVCAR-4 ovarian
[7] = tested on: UO-31 renal
[8] = tested on: TK-10 renal
[9] = tested on: EKVX NSCLC
[10] = tested on: HOP-92 NSCLC
[11] = tested on: MDA-MB-435
[12] = tested on: SR leukemia
[13] = tested on: SF-295 CNS
[14] = tested on: SF-268 CNS
[15] = tested on: MALME-3M melanoma
[16] = tested on: ACHN renal
[17] = tested on: SW-620 colon
[18] = tested on: NCI-H522 lung
[19] = tested on: UACC-257 melanoma
[20] = tested on: SNB-75 CNS
[21] = tested on: KM12 colon
[22] = tested on: IGROV1 ovarian
[23] = tested on: HS 578T breast
[24] = tested on: HT29 colon
[25] = tested on: OVCAR-8 ovarian
[26] = tested on: HCC-2998 colon
[27] = tested on: A549 NSCLC
[28] = tested on: NCI-H226 lung

For `CCN(CC)c1ccc(/C=C2\SC(=O)C(Nc3nnc(-c4cccnc4SCc4ccccc4)o3)C2=O)cc1` (stereo not given), the GI50 [1] was 12.8 µM, the TGI [1] was 89.7 µM and the GI50 [2] was 3.01 µM. The TGI [2] was greater than 100 µM, the GI50 [3] was 12 µM and the TGI [3] was 59.3 µM. For the same compound, the GI50 [4] was 5.1 µM, the TGI [4] was greater than 100 µM and the GI50 [5] was 3.34 µM. It also gave a TGI [5] of 19.9 µM, a GI50 [6] of 5.19 µM and a TGI [6] greater than 100 µM. It also gave a GI50 [7] of 5.42 µM, a TGI [7] greater than 100 µM and a GI50 [8] of 22.3 µM. The TGI [8] was greater than 100 µM, the GI50 [9] was 6.72 µM and the TGI [9] was greater than 100 µM. For the same compound, the GI50 [10] was 2.58 µM, the TGI [10] was 35 µM and the GI50 [11] was 2.18 µM. For the same compound, the TGI [11] was 5.81 µM, the GI50 [12] was 3.29 µM and the TGI [12] was greater than 100 µM. It also gave a GI50 [13] of 3.2 µM, a TGI [13] of 85.6 µM and a GI50 [14] of 6.8 µM. For the same compound, the TGI [14] was greater than 100 µM, the GI50 [15] was 4.12 µM and the TGI [15] was greater than 100 µM. For the same compound, the GI50 [16] was 6.78 µM, the TGI [16] was greater than 100 µM and the GI50 [17] was 3.94 µM. For the same compound, the TGI [17] was greater than 100 µM, the GI50 [18] was 3.15 µM and the TGI [18] was 9.67 µM. The GI50 [19] was 16.6 µM, the TGI [19] was greater than 100 µM and the GI50 [20] was 2.56 µM. The TGI [20] was 42.2 µM, the GI50 [21] was 3.64 µM and the TGI [21] was 28.4 µM. It also gave a GI50 [22] of 10.9 µM, a TGI [22] of 56.8 µM and a GI50 [23] of 2.61 µM. For the same compound, the TGI [23] was 8.77 µM, the GI50 [24] was 3.63 µM and the TGI [24] was greater than 100 µM. For the same compound, the GI50 [25] was 4 µM, the TGI [25] was greater than 100 µM and the GI50 [26] was 2.99 µM. The TGI [26] was 10.4 µM, the GI50 [27] was 3.98 µM and the TGI [27] was greater than 100 µM. It also gave a GI50 [28] of 9.41 µM.
